What was measured:
[1] = tested on: Trypanosoma brucei; assay: Anti-trypanosomal activity against trypomastigote blood stage of Trypanosoma brucei Lister 427 assessed as inhibition of parasite growth incubated for 72 hrs by resazurin-dye based assay; format: functional, organism-based; details: Lister 427, 72 h
[2] = Cytotoxicity against human THP-1 cells assessed as reduction in cell viability incubated for 72 hrs by MTT assay; format: toxicity, cell-based
[3] = Selectivity index, ratio of CC50 for cytotoxicity against human THP-1 cells to IC50 for anti-trypanosomal activity against trypomastigote blood stage of Trypanosoma brucei Lister 427; format: toxicity, cell-based; details: read-out: Ratio CC50/IC50
[4] = tested on: Leishmania infantum; assay: Anti-leishmanial activity against promastigote stage of Leishmania infantum MHOM/MA/67/ITMAP-263 assessed as inhibition of parasite growth at 10 uM incubated for 72 hrs by resazurin-dye based assay; format: functional
[5] = Cytotoxicity against human A549 cells assessed as reduction in cell viability at 10 uM incubated for 24 hrs by Cell-Titer Glo luminescence assay; format: toxicity, cell-based; details: read-out: INH
[6] = Cytotoxicity against human HEK293 cells assessed as reduction in cell viability at 10 uM incubated for 24 hrs by Cell-Titer Glo luminescence assay; format: toxicity, cell-based; details: read-out: INH
[7] = biological target: CYP3A4 (Homo sapiens, UniProt P08684); assay: Inhibition of human CYP3A4 expressed in insect cell microsomes at 10 uM preincubated for 20 mins followed by NADP+ and substrate addition and measured after 10 mins by fluorescence based analysis; format: ADME, Microsome; details: recombinant human CYP3A4 expressed in insect cell microsomes, time 30 min
Sequence of CYP3A4 (P08684 whole entry): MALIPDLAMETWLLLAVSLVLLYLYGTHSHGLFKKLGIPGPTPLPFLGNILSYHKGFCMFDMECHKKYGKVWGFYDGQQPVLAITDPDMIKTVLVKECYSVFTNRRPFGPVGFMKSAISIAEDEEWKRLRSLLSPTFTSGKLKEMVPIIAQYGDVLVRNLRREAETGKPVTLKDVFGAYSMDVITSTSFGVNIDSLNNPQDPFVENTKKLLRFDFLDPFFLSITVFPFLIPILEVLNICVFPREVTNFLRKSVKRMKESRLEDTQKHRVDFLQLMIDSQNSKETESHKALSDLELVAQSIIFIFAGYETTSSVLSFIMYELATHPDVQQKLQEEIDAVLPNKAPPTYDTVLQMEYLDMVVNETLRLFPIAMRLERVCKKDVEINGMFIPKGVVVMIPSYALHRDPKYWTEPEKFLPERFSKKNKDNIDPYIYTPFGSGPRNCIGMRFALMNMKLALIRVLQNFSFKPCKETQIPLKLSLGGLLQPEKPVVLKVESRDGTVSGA

[8] = biological target: hERG (KCNH2) (Homo sapiens, UniProt Q12809); assay: Displacement of tracer from hERG extracted from membrane at 10 uM incubated for 2 hrs by fluorescence polarization assay; format: toxicity, cell membranes; details: hERG membrane preparation, probe tracer (not named)
Sequence of hERG (KCNH2) (Q12809 whole entry): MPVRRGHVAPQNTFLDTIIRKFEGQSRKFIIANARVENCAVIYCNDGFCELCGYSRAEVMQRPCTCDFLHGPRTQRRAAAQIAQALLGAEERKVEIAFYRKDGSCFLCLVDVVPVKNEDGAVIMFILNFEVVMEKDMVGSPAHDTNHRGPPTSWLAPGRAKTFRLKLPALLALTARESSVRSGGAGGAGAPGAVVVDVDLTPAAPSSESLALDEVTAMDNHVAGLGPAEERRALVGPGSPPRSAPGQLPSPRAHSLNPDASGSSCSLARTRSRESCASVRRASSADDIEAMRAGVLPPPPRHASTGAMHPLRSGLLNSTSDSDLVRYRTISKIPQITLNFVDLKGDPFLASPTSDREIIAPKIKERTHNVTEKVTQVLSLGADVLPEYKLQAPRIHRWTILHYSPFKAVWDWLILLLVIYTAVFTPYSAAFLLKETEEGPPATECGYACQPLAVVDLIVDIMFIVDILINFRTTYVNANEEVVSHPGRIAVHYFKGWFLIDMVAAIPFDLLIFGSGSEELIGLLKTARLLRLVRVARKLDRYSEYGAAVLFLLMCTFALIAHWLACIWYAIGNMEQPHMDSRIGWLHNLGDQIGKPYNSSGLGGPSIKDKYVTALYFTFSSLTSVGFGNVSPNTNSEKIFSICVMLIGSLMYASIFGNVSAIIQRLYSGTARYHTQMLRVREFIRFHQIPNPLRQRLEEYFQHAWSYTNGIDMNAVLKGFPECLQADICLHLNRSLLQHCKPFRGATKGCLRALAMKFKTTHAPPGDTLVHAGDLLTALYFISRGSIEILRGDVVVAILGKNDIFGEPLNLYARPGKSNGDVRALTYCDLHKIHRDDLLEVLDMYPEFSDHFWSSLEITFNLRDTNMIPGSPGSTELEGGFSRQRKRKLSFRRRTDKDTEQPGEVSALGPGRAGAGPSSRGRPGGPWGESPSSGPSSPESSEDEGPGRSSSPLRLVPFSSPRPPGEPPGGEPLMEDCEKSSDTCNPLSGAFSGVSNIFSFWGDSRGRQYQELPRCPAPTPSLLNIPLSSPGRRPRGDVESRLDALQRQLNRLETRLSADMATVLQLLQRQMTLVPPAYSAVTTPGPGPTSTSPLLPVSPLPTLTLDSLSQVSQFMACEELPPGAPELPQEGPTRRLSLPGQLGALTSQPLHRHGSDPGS

[9] = tested on: Leishmania infantum; assay: Anti-leishmanial activity against promastigote stage of Leishmania infantum MHOM/MA/67/ITMAP-263 assessed as inhibition of parasite growth incubated for 72 hrs by resazurin-dye based assay; format: functional, organism-based; details: MHOM/MA/67/ITMAP-263, 72 h
[10] = tested on: Leishmania infantum; assay: Anti-leishmanial activity against luciferase expressing intracellular amastigote stage of Leishmania infantum MHOM/MA/67/ITMAP-263 infected in human THP-1 cells assessed as inhibition of parasite growth at 10 uM incubated for 72 hrs by Steady-Glo luciferase assay; format: functional; details: MHOM/MA/67/ITMAP-263, THP-1
[11] = Selectivity index, ratio of CC50 for cytotoxicity against human THP-1 cells to IC50 for anti-leishmanial activity against promastigote stage of Leishmania infantum MHOM/MA/67/ITMAP-263; format: toxicity, cell-based; details: read-out: Ratio CC50/IC50

| IC50 [1] [nM] | inhibition at 10 min, 10 µM [7] [%] | SMILES | CC50 at 72 h [2] [µM] | selectivity ratio [3] | inhibition at 10 µM [4] [%] | cytotoxicity at 24 h, 10 µM [5] [%] | cytotoxicity at 24 h, 10 µM [6] [%] | inhibition at 2 h, 10 µM [8] [%] | IC50 [9] [nM] | inhibition at 10 µM [10] [%] | selectivity ratio [11] |
| --- | --- | --- | --- | --- | --- | --- | --- | --- | --- | --- | --- |
| 1440 | 27 | COc1ccc(/C=N/Nc2ncnc3c(Nc4ccc(Cl)c(C(F)(F)F)c4)ncnc23)cc1O | > 10 | > 7 | 12 | 3 | -3 | 7 |  |  |  |
| 380 | 0 | Oc1cc(/C=N/Nc2ncnc3c(Nc4ccc(F)c(Cl)c4)ncnc23)cc(O)c1O | > 10 | > 26 | 0 | 27 | 24 | 62 |  |  |  |
| 5630 | 19 | COc1cc(/C=N/Nc2ncnc3c(Nc4ccc(Cl)c(C(F)(F)F)c4)ncnc23)cc(OC)c1O | > 10 | > 2 | 9 | -2 | -1 | 3 |  |  |  |
| 1760 | 20 | COc1cc(/C=N/Nc2ncnc3c(Nc4ccc(Cl)c(C(F)(F)F)c4)ncnc23)cc(OC)c1OC | > 10 | > 6 | 22 | -7 | -2 | 24 |  |  |  |
| 110 | 65 | COc1cccc(Nc2ncnc3c(NN)ncnc23)c1 | > 50 | > 438 | 99 | 16 | 12 | 14 | 280 | < 0 | 178 |
| 2760 | 11 | Oc1cc(/C=N/Nc2ncnc3c(Nc4ccc(Cl)c(C(F)(F)F)c4)ncnc23)cc(O)c1O | > 10 | > 4 | < 0 | -4 | -2 | 49 |  |  |  |
| 590 | 25 | Oc1ccc(/C=N/Nc2ncnc3c(Nc4ccc(F)c(Cl)c4)ncnc23)cc1O | > 50 | > 85 | 13 | -6 | -6 | 7 |  |  |  |
| 710 | 12 | COc1ccc(Nc2ncnc3c(NN)ncnc23)cc1 | > 50 | > 71 | 99 | -14 | -7 | 7 | 720 | < 0 | 69 |
| 260 | 0 | COc1ccc(/C=N/Nc2ncnc3c(Nc4ccc(OC(F)(F)F)cc4)ncnc23)cc1O | > 10 | > 39 | 60 | 38 | 10 | 61 | 2540 | < 0 | 4 |
| 8720 | 30 | COc1cc(/C=N/Nc2ncnc3c(Nc4ccc(F)c(Cl)c4)ncnc23)cc(OC)c1OC | > 10 | > 1 | 20 | 14 | 14 | 5 |  |  |  |
| 350 | 0 | Oc1ccc(/C=N/Nc2ncnc3c(Nc4ccc(OC(F)(F)F)cc4)ncnc23)cc1O | > 10 | > 29 | 52 | 18 | 24 | 21 | 14900 | < 0 | 1 |
| 390 | 11 | COc1cc(/C=N/Nc2ncnc3c(Nc4ccc(OC(F)(F)F)cc4)ncnc23)cc(OC)c1OC | > 10 | > 26 | 24 | 6 | 2 | 21 |  |  |  |
| 160 | 21 | Oc1cc(/C=N/Nc2ncnc3c(Nc4ccc(OC(F)(F)F)cc4)ncnc23)cc(O)c1O | > 10 | > 64 | 5 | 9 | 7 | 30 |  |  |  |
| 2710 | 0 | COc1cccc(Nc2ncnc3c(N/N=C/c4cc(O)c(O)c(O)c4)ncnc23)c1 | > 100 | > 37 | 95 | -6 | 8 | 34 | 450 | 4 | > 221 |
| 3 |  | N=C(N)c1ccc(OCCCCCOc2ccc(C(=N)N)cc2)cc1 [PENTAMIDINE] | < 10 |  |  |  |  |  |  |  |  |
| 180 | 20 | NNc1ncnc2c(Nc3ccc(OC(F)(F)F)cc3)ncnc12 | > 10 | > 55 | 18 | 17 | 17 | 30 |  |  |  |
| 5810 | 20 | COc1ccc(/C=N/Nc2ncnc3c(Nc4ccc(F)c(Cl)c4)ncnc23)cc1O | > 10 | > 2 | 13 | -9 | -3 | -7 |  |  |  |
| 260 | 24 | COc1cc(/C=N/Nc2ncnc3c(Nc4ccc(F)c(Cl)c4)ncnc23)ccc1O | > 50 | > 196 | 19 | 2 | 13 | 7 |  |  |  |
| 180 | 0 | COc1cc(/C=N/Nc2ncnc3c(Nc4ccc(OC(F)(F)F)cc4)ncnc23)ccc1O | > 10 | > 54 | 50 | 38 | 19 | 64 | 8750 | < 0 | 1 |
| 5830 | 32 | COc1cc(/C=N/Nc2ncnc3c(Nc4ccc(F)c(Cl)c4)ncnc23)cc(OC)c1O | > 100 | > 17 | < 0 | 5 | 11 | 38 |  |  |  |
| 430 | 0 | Oc1ccc(/C=N/Nc2ncnc3c(Nc4ccc(Cl)c(C(F)(F)F)c4)ncnc23)cc1O | > 10 | > 23 | 5 | 15 | 3 | 29 |  |  |  |

Reference: ChEMBL document CHEMBL5614450, “SAR Study of 4,8-Disubstituted Pyrimido[5,4-d]pyrimidines Exhibiting Antitrypanosomal and Antileishmanial Activity” (ACS Med Chem Lett, 2024)
